Reference: patent US10844077B2, “Thiazolyl-containing compounds for treating proliferative diseases” (Dana-Farber Cancer Institute, Inc., priority 2014, dated 2020)
“And” between values parts separate entries of the source, which are not always exact repeats. Equal entries are not always repeated.

Columns and labels:
Assay in all cases: KINATIV assay of compounds I-3 and I-9, lysate directly labeled with ATP-biotin probe (no GF)
Format in all cases: cell-based
[1] = target: kinases in BCWM.1 cells (Homo sapiens, UniProt Q9UBS0); conditions: p70S6Kb; Lys2; 1 μM, 90 min; no GF
Experimental: (§1) The cells were harvested and lysed. […] Bound kinases were identified and quantitated by ACTIVX as described in Patricelli et al., Biochemistry, 2007, 46(2): 350-358. The compounds were tested in duplicates against duplicate or quadruplicate control samples.

[2] = target: kinases in BCWM.1 cells (Homo sapiens, UniProt Q13523); conditions: PRP4; Lys2; 1 μM, 90 min; no GF
Experimental: as §1

[3] = target: kinases in BCWM.1 cells (Homo sapiens, UniProt P42680); conditions: TEC; Activation Loop; 1 μM, 90 min; no GF
Experimental: as §1

[4] = target: kinases in BCWM.1 cells (Homo sapiens, UniProt Q15418); conditions: Lys2, 1 μM, 90 min, no GF
Experimental: as §1

[5] = target: kinases in BCWM.1 cells (Homo sapiens, UniProt O95747); conditions: OSR1; Lys2; 1 μM, 90 min; no GF
Experimental: as §1

[6] = target: kinases in BCWM.1 cells (Homo sapiens, UniProt O00750); conditions: PIK3C2B; ATP; 1 μM, 90 min; no GF
Experimental: as §1

[7] = target: kinases in BCWM.1 cells (Homo sapiens, UniProt P51955); conditions: NEK2; Lys2; 1 μM, 90 min; no GF
Experimental: as §1

[8] = target: kinases in BCWM.1 cells (Homo sapiens, UniProt P43405); conditions: SYK; Activation Loop; 1 μM, 90 min; no GF
Experimental: as §1

[9] = target: kinases in BCWM.1 cells (Homo sapiens, UniProt Q9UL54); conditions: TAO2; Lys2; 1 μM, 90 min; no GF
Experimental: as §1

[10] = target: kinases in BCWM.1 cells (Homo sapiens, UniProt O94921)
Experimental: as §1

[11] = target: kinases in BCWM.1 cells (Homo sapiens, UniProt Q00536)
Experimental: as §1

[12] = target: kinases in BCWM.1 cells (Homo sapiens, UniProt P15735); conditions: PHKg2; Lys1; 1 μM, 90 min; no GF
Experimental: as §1

[13] = target: kinases in BCWM.1 cells (Homo sapiens, UniProt Q16539); conditions: p38a, 1 μM, 90 min, no GF
Experimental: as §1

[14] = target: kinases in BCWM.1 cells (Homo sapiens, UniProt Q96PY6); conditions: NEK1; Lys2; 1 μM, 90 min; no GF
Experimental: as §1

[15] = target: kinases in BCWM.1 cells (Homo sapiens, UniProt P51957); conditions: NEK4; Lys2; 1 μM, 90 min; no GF
Experimental: as §1

[16] = target: kinases in BCWM.1 cells (Homo sapiens, UniProt O00329); conditions: PIK3CD; ATP; 1 μM, 90 min; no GF
Experimental: as §1

[17] = system: kinases in BCWM.1 cells; conditions: 1 μM, no GF
Experimental: as §1

[18] = target: kinases in BCWM.1 cells (Homo sapiens, UniProt Q6PHR2); conditions: ULK3; Lys2; 1 μM, 90 min; no GF
Experimental: as §1

[19] = target: kinases in BCWM.1 cells (Homo sapiens, UniProt O95819); conditions: ZC1/HGK; Lys1; 1 μM, 90 min; no GF
Experimental: as §1

[20] = target: kinases in BCWM.1 cells (Homo sapiens, UniProt Q96S44); conditions: PRPK; ATP Loop; 1 μM, 90 min; no GF
Experimental: as §1

[21] = target: kinases in BCWM.1 cells (Homo sapiens, UniProt Q15349); conditions: RSK3 domain1; Lys2; 1 μM, 90 min; no GF
Experimental: as §1

[22] = target: kinases in BCWM.1 cells (Homo sapiens, UniProt Q9Y2I7); conditions: PIP5K3; ATP; 1 μM, 90 min; no GF
Experimental: as §1

[23] = target: kinases in BCWM.1 cells (Homo sapiens, UniProt Q14289); conditions: PYK2; Activation Loop; 1 μM, 90 min; no GF
Experimental: as §1

[24] = target: kinases in BCWM.1 cells (Homo sapiens, UniProt Q86UE8); conditions: TLK2; Lys2; 1 μM, 90 min; no GF
Experimental: as §1

[25] = target: kinases in BCWM.1 cells (Homo sapiens, UniProt O15530); conditions: PDK1; Lys1; 1 μM, 90 min; no GF
Experimental: as §1

[26] = target: kinases in BCWM.1 cells (Homo sapiens, UniProt Q9UKI8); conditions: TLK1; Lys2; 1 μM, 90 min; no GF
Experimental: as §1

kinases in BCWM.1 cells (Homo sapiens, UniProt Q16539), sequence (Q16539 2-360 limits assumed): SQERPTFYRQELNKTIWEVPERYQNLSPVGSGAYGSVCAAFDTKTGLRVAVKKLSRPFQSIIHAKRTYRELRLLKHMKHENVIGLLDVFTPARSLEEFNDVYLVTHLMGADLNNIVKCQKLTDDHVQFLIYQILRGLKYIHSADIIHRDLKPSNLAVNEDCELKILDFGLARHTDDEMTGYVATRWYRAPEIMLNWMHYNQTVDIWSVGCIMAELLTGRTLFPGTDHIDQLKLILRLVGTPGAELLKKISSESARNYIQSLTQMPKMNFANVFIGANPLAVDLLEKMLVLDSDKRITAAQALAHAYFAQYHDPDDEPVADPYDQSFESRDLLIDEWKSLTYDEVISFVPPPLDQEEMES
kinases in BCWM.1 cells (Homo sapiens, UniProt O95747), sequence (O95747 2-527 limits assumed): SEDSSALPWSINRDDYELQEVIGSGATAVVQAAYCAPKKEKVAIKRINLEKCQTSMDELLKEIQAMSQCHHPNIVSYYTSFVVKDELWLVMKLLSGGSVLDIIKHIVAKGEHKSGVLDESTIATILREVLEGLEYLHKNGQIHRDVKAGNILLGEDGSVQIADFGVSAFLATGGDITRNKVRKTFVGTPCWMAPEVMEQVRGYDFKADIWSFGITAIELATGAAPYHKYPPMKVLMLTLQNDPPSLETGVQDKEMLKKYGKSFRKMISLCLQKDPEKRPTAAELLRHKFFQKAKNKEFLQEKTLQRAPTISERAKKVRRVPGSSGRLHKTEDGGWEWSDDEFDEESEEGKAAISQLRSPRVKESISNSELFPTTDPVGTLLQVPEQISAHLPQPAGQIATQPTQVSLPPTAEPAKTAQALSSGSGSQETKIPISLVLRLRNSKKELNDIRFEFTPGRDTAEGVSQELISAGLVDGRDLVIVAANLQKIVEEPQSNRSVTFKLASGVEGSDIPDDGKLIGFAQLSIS
kinases in BCWM.1 cells (Homo sapiens, UniProt O95819), sequence (O95819 2-1239 limits assumed): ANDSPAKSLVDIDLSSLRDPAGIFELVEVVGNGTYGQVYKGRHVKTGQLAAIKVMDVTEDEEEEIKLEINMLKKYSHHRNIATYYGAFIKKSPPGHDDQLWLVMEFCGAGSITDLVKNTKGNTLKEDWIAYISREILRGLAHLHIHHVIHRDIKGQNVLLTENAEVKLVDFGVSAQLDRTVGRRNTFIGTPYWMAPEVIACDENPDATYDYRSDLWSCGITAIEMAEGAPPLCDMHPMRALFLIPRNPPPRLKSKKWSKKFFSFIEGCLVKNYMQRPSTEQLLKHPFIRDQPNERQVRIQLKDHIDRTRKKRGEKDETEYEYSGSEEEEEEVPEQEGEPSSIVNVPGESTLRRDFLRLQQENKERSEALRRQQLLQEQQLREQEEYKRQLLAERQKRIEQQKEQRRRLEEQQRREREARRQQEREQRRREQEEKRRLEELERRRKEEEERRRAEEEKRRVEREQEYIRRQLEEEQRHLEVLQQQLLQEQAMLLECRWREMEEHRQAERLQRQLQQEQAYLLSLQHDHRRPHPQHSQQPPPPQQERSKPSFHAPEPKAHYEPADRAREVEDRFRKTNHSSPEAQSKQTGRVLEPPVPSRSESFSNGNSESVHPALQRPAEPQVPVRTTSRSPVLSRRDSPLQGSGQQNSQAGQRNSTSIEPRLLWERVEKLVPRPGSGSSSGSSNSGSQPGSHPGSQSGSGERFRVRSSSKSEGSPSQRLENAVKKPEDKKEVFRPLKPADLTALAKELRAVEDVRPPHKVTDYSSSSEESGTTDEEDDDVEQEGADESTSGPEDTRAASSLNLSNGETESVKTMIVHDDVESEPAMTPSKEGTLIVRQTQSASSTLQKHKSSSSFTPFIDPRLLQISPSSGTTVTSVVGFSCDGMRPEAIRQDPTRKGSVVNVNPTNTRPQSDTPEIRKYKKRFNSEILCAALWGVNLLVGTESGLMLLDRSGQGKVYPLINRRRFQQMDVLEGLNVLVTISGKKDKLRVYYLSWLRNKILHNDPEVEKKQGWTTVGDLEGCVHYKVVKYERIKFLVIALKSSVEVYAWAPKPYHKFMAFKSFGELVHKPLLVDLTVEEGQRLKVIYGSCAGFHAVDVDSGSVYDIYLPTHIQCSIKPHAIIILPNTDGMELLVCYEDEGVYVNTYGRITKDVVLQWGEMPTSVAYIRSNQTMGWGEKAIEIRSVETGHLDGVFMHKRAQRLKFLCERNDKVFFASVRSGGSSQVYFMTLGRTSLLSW
kinases in BCWM.1 cells (Homo sapiens, UniProt Q13523), sequence (Q13523 2-1007 limits assumed): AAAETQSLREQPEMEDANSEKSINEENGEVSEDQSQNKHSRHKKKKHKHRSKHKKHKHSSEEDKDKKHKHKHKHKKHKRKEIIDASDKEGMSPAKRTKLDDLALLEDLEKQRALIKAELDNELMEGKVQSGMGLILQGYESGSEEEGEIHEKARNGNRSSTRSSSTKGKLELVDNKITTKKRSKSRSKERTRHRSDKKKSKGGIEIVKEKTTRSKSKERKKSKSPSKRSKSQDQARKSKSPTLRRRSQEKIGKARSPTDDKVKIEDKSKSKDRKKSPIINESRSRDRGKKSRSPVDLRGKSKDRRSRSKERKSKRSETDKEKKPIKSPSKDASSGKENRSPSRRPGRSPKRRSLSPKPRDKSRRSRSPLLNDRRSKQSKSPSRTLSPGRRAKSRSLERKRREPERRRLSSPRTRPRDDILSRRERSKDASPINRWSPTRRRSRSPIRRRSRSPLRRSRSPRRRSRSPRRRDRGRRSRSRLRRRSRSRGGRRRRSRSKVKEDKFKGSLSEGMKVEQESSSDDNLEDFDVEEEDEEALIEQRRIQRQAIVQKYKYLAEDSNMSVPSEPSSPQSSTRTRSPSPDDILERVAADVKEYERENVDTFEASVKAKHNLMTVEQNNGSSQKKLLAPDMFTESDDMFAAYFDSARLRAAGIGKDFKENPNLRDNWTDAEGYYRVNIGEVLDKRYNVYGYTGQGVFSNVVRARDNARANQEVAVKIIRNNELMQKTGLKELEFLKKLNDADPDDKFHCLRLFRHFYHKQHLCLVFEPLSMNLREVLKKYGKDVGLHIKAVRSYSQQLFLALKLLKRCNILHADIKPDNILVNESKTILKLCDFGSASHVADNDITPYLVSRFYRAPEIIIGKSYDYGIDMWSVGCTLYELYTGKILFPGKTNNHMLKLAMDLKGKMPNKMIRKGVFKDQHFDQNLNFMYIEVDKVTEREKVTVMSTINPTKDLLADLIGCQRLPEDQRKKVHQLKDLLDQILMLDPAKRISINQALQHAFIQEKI

SMILES: C=CC(=O)N1CC[C@H](Nc2nccc(Nc3ncc(C(=O)Nc4c(C)cccc4C)s3)n2)C1 [Example I-3]
- % change of MS signal compared to control sample [1]: −36.7%
- % change of MS signal compared to control sample [2]: 5.9%
- % change of MS signal compared to control sample [3]: >91%
- % change of MS signal compared to control sample ([4]; RSK1 domain1): 9%
- % change of MS signal compared to control sample ([4]; RSK1 domain2): −1.9%
- % change of MS signal compared to control sample [5]: 13.8%
- % change of MS signal compared to control sample [6]: −1.8%
- % change of MS signal compared to control sample [7]: 20.5%
- % change of MS signal compared to control sample [8]: −1.2%
- % change of MS signal compared to control sample [9]: 5%
- % change of MS signal compared to control sample [10]: 0.9%
- % change of MS signal compared to control sample [11]: 10%
- % change of MS signal compared to control sample [12]: −31.2%
- % change of MS signal compared to control sample ([13]; Lys2): 43.5%
- % change of MS signal compared to control sample ([13]; Protein Kinase Domain): 32.6%
- % change of MS signal compared to control sample [14]: 7.4%
- % change of MS signal compared to control sample [15]: 10.1%
- % change of MS signal compared to control sample [16]: −3.4%
- % change of MS signal compared to control sample ([17]; ABL, ARG, Activation Loop): 75.4% and 93.5%
- % change of MS signal compared to control sample ([17]; ABL, ARG, Lys1): 86.9% and 93.2%
- % change of MS signal compared to control sample ([17]; AKT2, AKT3, ATP Loop): −19.2% and −14.5%
- % change of MS signal compared to control sample ([17]; AurA, AurB, AurC, ATP Loop): 7.7% and 4.7%
- % change of MS signal compared to control sample ([17]; FYN, SRC, YES, Activation Loop): 87.3% and 85.7%
- % change of MS signal compared to control sample ([17]; MARK3, MARK4, Lys1): 2.5% and −4%
- % change of MS signal compared to control sample ([17]; MER, TYRO3, Activation Loop): 2.4% and 0.4%
- % change of MS signal compared to control sample ([17]; MST4, YSK1, Lys2, 90 min): 18.1%
- % change of MS signal compared to control sample ([17]; NEK6, NEK7, Lys2, 90 min): 6.4%
- % change of MS signal compared to control sample ([17]; PCTAIRE2, PCTAIRE3, Lys1, 90 min): −0.4%
- % change of MS signal compared to control sample ([17]; PI4KA, PI4KAP2, ATP, 90 min): −3.7%
- % change of MS signal compared to control sample ([17]; PKACa, PKCb, Lys2, 90 min): 2.4%
- % change of MS signal compared to control sample ([17]; ROCK1, ROCK2, Lys2, 90 min): −22.2%
- % change of MS signal compared to control sample ([17]; RSK1 domain1, RSK2 domain1, RSK3 domain1, Lys2, 90 min): −14.8%
- % change of MS signal compared to control sample ([17]; SRPK1, SRPK2, Lys1, 90 min): −3%
- % change of MS signal compared to control sample ([17]; TAO1, TAO3, Lys2, 90 min): 7.8%
- % change of MS signal compared to control sample ([17]; Wnk1, Wnk2, Wnk3, Lys2, 90 min): 14.9%
- % change of MS signal compared to control sample ([17]; Wnk1, Wnk2, ATP Loop, 90 min): 13.1%
- % change of MS signal compared to control sample ([17]; ZC1/HGK, ZC2/TNIK, ZC3/MINK, Lys2, 90 min): 2.7%
- % change of MS signal compared to control sample ([17]; p38d, p38g, Lys2, 90 min): 5.7%
- % change of MS signal compared to control sample [18]: 8.2%
- % change of MS signal compared to control sample [19]: −14.8%
- % change of MS signal compared to control sample [20]: 2.1%
- % change of MS signal compared to control sample [21]: 7.6%
- % change of MS signal compared to control sample [22]: 6.5%
- % change of MS signal compared to control sample [23]: 1%
- % change of MS signal compared to control sample [24]: −3%
- % change of MS signal compared to control sample [25]: −8.4%
- % change of MS signal compared to control sample [26]: −0.7%
